# Experimental data as given in patent publication US7345180B2, “Compound inhibiting dipeptidyl peptidase IV” (Sanwa Kagaku Kenkyusho Co., Ltd., priority 2003, dated 2008).
# Biological target: T1, DPP-IV (Homo sapiens, UniProt P27487)
# T1 construct: from tissue; host or cells: human plasma (diluted 30-fold)
# Assay: DPP-IV inhibition, Gly-Pro-MCA substrate, human plasma as enzyme source (Pharmacological Test Example 1)
# Format: biochemical
# Conditions: 30 minutes at room temperature
# Description: In screening of DPP-IV inhibitor, the following method using glycyl-proline-4-methylcumalyl-7-amide (Gly-Pro-MCA) as substrate was used.
# There after, human plasma (20 μl) diluted30-fold with the measurement buffer was added to each well, stirred and reacted at room temperature for 30 minutes in the dark.
# Inhibitory activity on DPP-IV=100×(1−(Fs−Fb)/F100−Fb) F100:fluorescence intensity obtained by reaction with plasma. Fb:fluorescence intensity of a blank where the reaction was carried out with the reaction terminating solution added. Fs:fluorescence intensity obtained by adding the test substance.
# T1 sequence (P27487 39-766 limits assumed): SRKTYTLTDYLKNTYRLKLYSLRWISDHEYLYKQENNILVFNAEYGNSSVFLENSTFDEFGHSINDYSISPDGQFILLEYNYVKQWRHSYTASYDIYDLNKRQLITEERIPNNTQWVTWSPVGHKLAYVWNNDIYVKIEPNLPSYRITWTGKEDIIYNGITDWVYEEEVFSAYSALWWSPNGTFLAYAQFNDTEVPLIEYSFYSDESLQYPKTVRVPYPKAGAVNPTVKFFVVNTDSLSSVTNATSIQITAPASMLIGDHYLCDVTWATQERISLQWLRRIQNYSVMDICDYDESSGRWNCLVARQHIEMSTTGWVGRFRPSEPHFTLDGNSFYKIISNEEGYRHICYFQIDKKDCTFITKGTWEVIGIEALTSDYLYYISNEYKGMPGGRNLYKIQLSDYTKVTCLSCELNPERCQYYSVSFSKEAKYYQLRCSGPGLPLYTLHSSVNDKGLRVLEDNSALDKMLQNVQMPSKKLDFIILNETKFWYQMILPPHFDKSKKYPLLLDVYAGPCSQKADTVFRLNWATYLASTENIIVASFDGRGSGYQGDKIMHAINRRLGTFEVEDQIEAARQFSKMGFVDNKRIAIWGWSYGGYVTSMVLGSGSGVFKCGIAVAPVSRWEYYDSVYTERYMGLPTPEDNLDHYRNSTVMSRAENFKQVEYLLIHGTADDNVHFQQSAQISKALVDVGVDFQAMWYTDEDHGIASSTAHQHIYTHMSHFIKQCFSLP
row,IC50 [nM],SMILES
1,26,Cc1nn(C)c2ncc(C(=O)NCCNCC(=O)N3CCC[C@H]3C#N)cc12 [Compound 122]
2,31,N#C[C@@H]1CCCN1C(=O)CNCCNC(=O)c1cnc2n(c1=O)CCS2 [Compound 126]
3,87,COc1c(C(=O)NCC(C)(C)NCC(=O)N2CCC[C@H]2C#N)c(C)nc2cc(C)nn12 [Example 4]
4,85,COc1c(C(=O)NCC(C)(C)NCC(=O)N2CCC[C@H]2C#N)c(C)nc2cc(-c3ccccc3)nn12 [Example 10]
5,68,Cc1cc2nc(O)c(C(=O)NCC(C)(C)NCC(=O)N3CCC[C@H]3C#N)cn2n1 [Example 11]
6,24,CC(C)(CNC(=O)c1cnc2cc(CO)nn2c1)NCC(=O)N1CCC[C@H]1C#N [Example 13]
7,28,CC(C)(CNC(=O)c1c[nH]c2ccccc12)NCC(=O)N1CCC[C@H]1C#N [Example 15]
8,33,CC(C)(CNC(=O)c1ccc2[nH]ccc2c1)NCC(=O)N1CCC[C@H]1C#N [Example 16]
9,36,Cn1cc(C(=O)NCC(C)(C)NCC(=O)N2CCC[C@H]2C#N)c2ccccc21 [Example 18]
10,50,Cn1ccc2c(C(=O)NCC(C)(C)NCC(=O)N3CCC[C@H]3C#N)cccc21 [Example 19]
11,52,Cn1ccc2cc(C(=O)NCC(C)(C)NCC(=O)N3CCC[C@H]3C#N)ccc21 [Example 20]
12,28,Cn1ccc2ccc(C(=O)NCC(C)(C)NCC(=O)N3CCC[C@H]3C#N)cc21 [Example 21]
13,73,Cn1ccc2cccc(C(=O)NCC(C)(C)NCC(=O)N3CCC[C@H]3C#N)c21 [Example 22]
14,82,COc1cccc2c1cc(C(=O)NCC(C)(C)NCC(=O)N1CCC[C@H]1C#N)n2C [Example 23]
15,43,COc1ccc2cc(C(=O)NCC(C)(C)NCC(=O)N3CCC[C@H]3C#N)n(C)c2c1 [Example 24]
16,48,COc1cc(OC)c2cc(C(=O)NCC(C)(C)NCC(=O)N3CCC[C@H]3C#N)n(C)c2c1 [Example 25]
17,33,COc1ccc2c(c1)c(C(=O)NCC(C)(C)NCC(=O)N1CCC[C@H]1C#N)c(C)n2C [Example 26]
18,21,COc1ccc2c(c1)c(C(=O)NCC(C)(C)NCC(=O)N1CCC[C@H]1C#N)cn2C [Example 27]
19,78,COc1cc(C(=O)NCC(C)(C)NCC(=O)N2CCC[C@H]2C#N)cc2ccn(C)c12 [Example 28]
20,89,CC(C)Cn1cc(C(=O)NCC(C)(C)NCC(=O)N2CCC[C@H]2C#N)c2ccccc21 [Example 30]

row,IC50 [nM],SMILES
1,49,CC(C)(C)Cn1ccc2cc(C(=O)NCC(C)(C)NCC(=O)N3CCC[C@H]3C#N)ccc21 [Example 31]
2,48,CC(C)Cn1ccc2cc(C(=O)NCC(C)(C)NCC(=O)N3CCC[C@H]3C#N)ccc21 [Example 32]
3,71,CC(C)(CNC(=O)c1cn(COCc2ccccc2)c2ccccc12)NCC(=O)N1CCC[C@H]1C#N [Example 33]
4,23,COCn1cc(C(=O)NCC(C)(C)NCC(=O)N2CCC[C@H]2C#N)c2ccccc21 [Example 34]
5,37,CC(=O)OCn1cc(C(=O)NCC(C)(C)NCC(=O)N2CCC[C@H]2C#N)c2ccccc21 [Example 35]
6,45,CC(C)(CNC(=O)c1ccc2c(ccn2COCc2ccccc2)c1)NCC(=O)N1CCC[C@H]1C#N [Example 36]
7,17,CC(C)(CNC(=O)c1ccc2c(ccn2CO)c1)NCC(=O)N1CCC[C@H]1C#N [Example 37]
8,25,COCn1ccc2cc(C(=O)NCC(C)(C)NCC(=O)N3CCC[C@H]3C#N)ccc21 [Example 38]
9,73,COc1ccc2c(c1)c(C(=O)NCC(C)(C)NCC(=O)N1CCC[C@H]1C#N)cn2CC(C)(C)C [Example 39]
10,25,CC(C)(C)Cn1cc(C(=O)NCC(C)(C)NCC(=O)N2CCC[C@H]2C#N)c2cc(O)ccc21 [Example 41]
11,27,CC(C)(CNC(=O)c1cn(COC(=O)C(C)(C)C)c2ccccc12)NCC(=O)N1CCC[C@H]1C#N [Example 42]
12,16,CC(C)(CNC(=O)c1ccc2c(ccn2CC(=O)OC(C)(C)C)c1)NCC(=O)N1CCC[C@H]1C#N [Example 43]
13,37,CN1CCc2cc(C(=O)NCC(C)(C)NCC(=O)N3CCC[C@H]3C#N)ccc21 [Example 44]
14,28,CC(=O)n1cc(C(=O)NCC(C)(C)NCC(=O)N2CCC[C@H]2C#N)c2ccccc21 [Example 45]
15,19,CC(=O)N1CCc2cc(C(=O)NCC(C)(C)NCC(=O)N3CCC[C@H]3C#N)ccc21 [Example 46]
16,24,CC(=O)n1ccc2cc(C(=O)NCC(C)(C)NCC(=O)N3CCC[C@H]3C#N)ccc21 [Example 47]
17,31,CC(C)(CNC(=O)c1ccc2c(ccn2C(=O)c2ccccc2)c1)NCC(=O)N1CCC[C@H]1C#N [Example 48]
18,20,CC(C)(CNC(=O)c1ccc2c(ccn2C(=O)C(C)(C)C)c1)NCC(=O)N1CCC[C@H]1C#N [Example 49]
19,20,CC(C)(CNC(=O)c1ccc2c(c1)CCN2C(=O)C(F)(F)F)NCC(=O)N1CCC[C@H]1C#N [Example 50]
20,26,CC(C)(CNC(=O)c1ccc2ncsc2c1)NCC(=O)N1CCC[C@H]1C#N [Example 51]

row,IC50 [nM],SMILES
1,48,COc1cc(C(=O)NCC(C)(C)NCC(=O)N2CCC[C@H]2C#N)cc2sc(C(F)(F)F)nc12 [Example 53]
2,24,CC(C)(CNC(=O)c1ccc2[nH]c(=O)sc2c1)NCC(=O)N1CCC[C@H]1C#N [Example 55]
3,30,Cn1cnc2cc(C(=O)NCC(C)(C)NCC(=O)N3CCC[C@H]3C#N)ccc21 [Example 56]
4,35,Cc1nc2ccc(C(=O)NCC(C)(C)NCC(=O)N3CCC[C@H]3C#N)cc2o1 [Example 57]
5,50,CC(C)(CNC(=O)C1Cc2ccccc2C1)NCC(=O)N1CCC[C@H]1C#N [Example 59]
6,18,CC(C)(CC(=O)N1Cc2ccc(F)cc2C1)NCC(=O)N1CCC[C@H]1C#N [Example 63]
7,24,CC(C)(CC(=O)N1Cc2ccc(Br)cc2C1)NCC(=O)N1CCC[C@H]1C#N [Example 64]
8,11,CC(C)(CC(=O)N1Cc2ccc(Cl)cc2C1)NCC(=O)N1CCC[C@H]1C#N [Example 65]
9,50,CC(C)(CC(=O)N1Cc2ccc(C(C)(C)C)cc2C1)NCC(=O)N1CCC[C@H]1C#N [Example 66]
10,7,CC(C)(CC(=O)N1Cc2cccc(F)c2C1)NCC(=O)N1CCC[C@H]1C#N [Example 67]
11,16,Cc1cccc2c1CN(C(=O)CC(C)(C)NCC(=O)N1CCC[C@H]1C#N)C2 [Example 68]
12,21,CC(C)(CC(=O)N1Cc2c(Cl)ccc(Cl)c2C1)NCC(=O)N1CCC[C@H]1C#N [Example 69]
13,32,CC(C)(CC(=O)N1Cc2cccc(O)c2C1)NCC(=O)N1CCC[C@H]1C#N [Example 70]
14,2,CC(C)(CC(=O)N1Cc2ccc(CO)cc2C1)NCC(=O)N1CCC[C@H]1C#N [Example 71]
15,39,CC(C)(CC(=O)N1Cc2ccc(C(F)(F)F)cc2C1)NCC(=O)N1CCC[C@H]1C#N [Example 72]
16,94,CC(C)(CC(=O)N1Cc2c(Cl)c(Cl)c(Cl)c(Cl)c2C1)NCC(=O)N1CCC[C@H]1C#N [Example 73]
17,44,CC(C)(CC(=O)N1Cc2cc(Cl)c(Cl)cc2C1)NCC(=O)N1CCC[C@H]1C#N [Example 74]
18,14,Cc1cc(O)c2c(c1)CN(C(=O)CC(C)(C)NCC(=O)N1CCC[C@H]1C#N)C2 [Example 75]
